Measurements as given in patent US20240174679A1, “HETEROAROYL AMIDES AS LRRK2 INHIBITORS, PHARMACEUTICAL COMPOSITIONS, AND USES THEREOF” (MERCK SHARP & DOHME LLC, priority 2021, published 2024).

The molecules below were run against GST tagged truncated human mutant G2019S LRRK2 (Homo sapiens (Human), UniProt Q5S007, G2019S) (assay: LRRK2 Km ATP LanthaScreen Assay). Conditions: 134 μM ATP (Km ATP), LRRKtide substrate, negative log of mean IC50 (molar).
Assay type: biochemical
Experimental: Unless otherwise noted, all reactions are magnetically stirred. Unless otherwise noted, when diethyl ether is used in the experiments described below, it is Fisher ACS certified material and is stabilized with BHT. Unless otherwise noted, “concentrated” and/or “solvent removed under reduced pressure” means evaporating the solvent from a solution or mixture using a rotary evaporator or vacuum pump. Unless otherwise noted, flash chromatography is carried out on a Teledyne Isco (Lincoln, NE), Analogix (Burlington, WI), or Biotage (Stockholm, SWE) automated chromatography system using a commercially available cartridge as the column. Columns may be purchased from Teledyne Isco, Analogix, Biotage, Varian (Palo Alto, CA), or Supelco (Bellefonte, PA) and are usually filled with silica gel as the stationary phase. Reversed phase preparative HPLC conditions, where used, can be found at the end of each experimental section. Aqueous solutions were concentrated on a Genevac (Ipswich, ENG) or by freeze-drying/lyophilization. Unless otherwise noted, all LRRK2 pIC50 data presented in tables refers to the LRRK2 G2019S Km ATP LanthaScreen™ assay (Life Technologies Corp., Carlsbad, CA) that is described in the Biological Assay section.
Biological Assay: LRRK2 Km ATP LanthaScreen™ Assay
Compound potency against LRRK2 kinase activity was determined using LanthaScreen™ technology from Life Technologies Corporation (Carlsbad, CA) using a GST20 tagged truncated human mutant G2019S LRRK2 in the presence of the fluorescein-labeled peptide substrate LRRKtide® (LRRK2 phosphorylated ezrin/radixin/moesin (ERM)), also from Life Technologies. The data presented for the Km ATP LanthaScreen™ Assay represents mean IC50 values based on several test results and may have reasonable deviations depending on the specific conditions and reagents used. Km is the Michaelis constant of an enzyme and is defined as the concentration of native substrate (ATP for a kinase) which permits the enzyme to achieve half Vmax (Vmax=rate of reaction when the enzyme is saturated with substrate). IC50 (half-maximal inhibitory concentration) represents the concentration of inhibitor required to inhibit LRRK2 kinase activity by 50%. Assays were performed in the presence of 134 μM ATP (Km ATP). Upon completion, the assay was stopped, and phosphorylated substrate detected with a terbium (Tb)-labeled anti-pERM antibody (cat. no. PV4898). The compound dose response was prepared by diluting a 10 mM stock of compound to a maximum concentration of 9.99 μM in 100% DMSO, followed by custom fold serial dilution in DMSO nine times. 20 nL of each dilution was spotted via a Labcyte Echo onto a 384-well black-sided plate (Corning 3575) followed by 15 μL of a 1.25 nM enzyme solution in 1× assay buffer (50 mM Tris pH 8.5, 10 mM MgCl2, 0.01% Brij-35, 1 mM EGTA, 2 mM dithiothreitol, 0.05 mM sodium orthovanadate). Following a 15-min incubation period at rt, the kinase reaction was started with the addition of 5 μL of 400 nM fluorescein-labeled LRRKtide® (LRRK2 phosphorylated ezrin/radixin/moesin (ERM)) peptide substrate and 134 μM ATP solution in 1× assay buffer. The reaction was allowed to progress at ambient temperature for 90 min. The reaction was then stopped by the addition of 20 μL of TR-FRET Dilution Buffer (Life Technologies, Carlsbad, CA) containing 2 nM Tb-labeled anti-phospho LRRKtide® (LRRK2 phosphorylated ezrin/radixin/moesin (ERM)) antibody and 10 mM EDTA (Life Technologies, Carlsbad, CA). After an incubation period of 1 h at rt, the plate was read on an EnVision® multimode plate reader (Perkin Elmer, Waltham, MA) with an excitation wavelength of 337 nm (Laser) and a reading emission at both 520 and 495 nm. Compound IC50 values were interpolated from nonlinear regression best-fits of the log of the final compound concentration, plotted as a function of the 520/495-nm emission ratio using activity base “Abase”). Abase uses a 4 parameter (4P) logistic fit based on the Levenberg-Marquardt algorithm. […]

Chain of GST tagged truncated human mutant G2019S LRRK2 (Q5S007 970-2527 G2019S): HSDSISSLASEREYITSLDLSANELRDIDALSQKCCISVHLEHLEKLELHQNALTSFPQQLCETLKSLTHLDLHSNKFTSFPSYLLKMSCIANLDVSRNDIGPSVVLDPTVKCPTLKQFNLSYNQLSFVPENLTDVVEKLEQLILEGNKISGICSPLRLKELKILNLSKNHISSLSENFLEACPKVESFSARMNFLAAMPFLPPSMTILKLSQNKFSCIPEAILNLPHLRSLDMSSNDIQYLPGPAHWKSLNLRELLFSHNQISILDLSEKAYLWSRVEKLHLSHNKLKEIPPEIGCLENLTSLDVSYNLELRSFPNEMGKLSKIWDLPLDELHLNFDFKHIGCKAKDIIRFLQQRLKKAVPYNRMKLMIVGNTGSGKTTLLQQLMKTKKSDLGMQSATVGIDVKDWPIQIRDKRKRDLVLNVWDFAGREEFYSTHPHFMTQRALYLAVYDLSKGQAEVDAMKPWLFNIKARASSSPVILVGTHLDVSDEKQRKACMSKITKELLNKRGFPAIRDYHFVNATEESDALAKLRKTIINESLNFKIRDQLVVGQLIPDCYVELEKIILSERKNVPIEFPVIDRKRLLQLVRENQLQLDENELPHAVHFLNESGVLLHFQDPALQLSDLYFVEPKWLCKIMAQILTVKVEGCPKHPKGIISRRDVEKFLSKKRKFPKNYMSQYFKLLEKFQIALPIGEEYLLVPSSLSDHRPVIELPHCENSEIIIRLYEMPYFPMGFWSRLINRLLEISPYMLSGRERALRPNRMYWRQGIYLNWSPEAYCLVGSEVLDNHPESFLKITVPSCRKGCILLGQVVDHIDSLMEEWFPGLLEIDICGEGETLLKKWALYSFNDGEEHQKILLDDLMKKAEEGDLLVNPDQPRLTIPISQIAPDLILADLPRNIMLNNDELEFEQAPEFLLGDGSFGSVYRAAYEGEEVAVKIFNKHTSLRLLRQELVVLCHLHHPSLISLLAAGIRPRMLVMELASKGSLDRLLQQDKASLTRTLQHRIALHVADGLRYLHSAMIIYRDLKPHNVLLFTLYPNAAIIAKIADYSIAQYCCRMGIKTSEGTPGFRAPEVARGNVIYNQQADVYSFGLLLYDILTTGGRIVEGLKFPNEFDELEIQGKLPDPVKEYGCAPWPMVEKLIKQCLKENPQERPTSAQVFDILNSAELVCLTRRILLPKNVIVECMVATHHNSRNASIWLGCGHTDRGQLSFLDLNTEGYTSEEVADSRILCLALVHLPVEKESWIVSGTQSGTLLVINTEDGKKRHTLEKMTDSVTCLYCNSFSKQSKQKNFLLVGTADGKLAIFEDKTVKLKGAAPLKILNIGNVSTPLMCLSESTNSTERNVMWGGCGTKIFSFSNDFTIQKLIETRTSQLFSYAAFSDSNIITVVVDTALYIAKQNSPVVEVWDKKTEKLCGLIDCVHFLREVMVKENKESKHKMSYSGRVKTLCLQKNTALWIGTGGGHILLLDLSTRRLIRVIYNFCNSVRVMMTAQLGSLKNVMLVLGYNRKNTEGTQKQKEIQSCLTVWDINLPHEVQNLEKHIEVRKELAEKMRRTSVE

**Q.** O=C(Nc1cnn(C2CC2)c1)c1cccc(-c2cnn(CC(F)(F)F)c2)n1 [Example 4-1, N-(1-Cyclopropyl-1H-pyrazol-4-yl)-6-(1-(2,2,2-trifluoroethyl)-1H-pyrazol-4-yl)picolinamide] was tested. Which “LRRK2 pIC50” value did it give?
**A.** 7.98

**Q.** Which “LRRK2 pIC50” value does the source give for Cc1nc(C(=O)Nc2cnn(C3CCC3)c2)ccc1C#N [Example 4-2, 5-cyano-N-(1-cyclobutyl-1H-pyrazol-4-yl)-6-methylpyridine-2-carboxamide] here?
**A.** 5.07

**Q.** CC(C)Nc1nc(C(=O)Nc2cnn(C3CCC3)c2)cs1 [Example 4-3, N-(1-cyclobutyl-1H-pyrazol-4-yl)-2-[(1-methylethyl)amino]-1,3-thiazole-4-carboxamide] was tested. Which “LRRK2 pIC50” value did it give?
**A.** 6.19

**Q.** Which “LRRK2 pIC50” value does the source give for O=C(Nc1cnn(C2CCC2)c1)c1coc(-c2ccccc2)n1 [Example 4-4, N-(1-cyclobutyl-1H-pyrazol-4-yl)-2-phenyl-1,3-oxazole-4-carboxamide] here?
**A.** 5.68

**Q.** CSc1nc(C(=O)Nc2cnn(C3CCC3)c2)cs1 [Example 4-5, N-(1-cyclobutyl-1H-pyrazol-4-yl)-2-(methylsulfanyl)-1,3-thiazole-4-carboxamide] was tested. Which “LRRK2 pIC50” value did it give?
**A.** 5.82

**Q.** With CC(C)Oc1cccc(C(=O)Nc2cnn(C3CCC3)c2)n1 [Example 4-6, N-(1-cyclobutyl-1H-pyrazol-4-yl)-6-(1-methylethoxy) pyridine-2-carboxamide] as the molecule, how does the “LRRK2 pIC50” value read?
**A.** 7.10

**Q.** O=C(Nc1cnn(C2CCC2)c1)c1ccn(-c2ccccc2)n1 [Example 4-7, N-(1-cyclobutyl-1H-pyrazol-4-yl)-1-phenyl-1H-pyrazole-3-carboxamide] was tested. Which “LRRK2 pIC50” value did it give?
**A.** 5.56

**Q.** How did the “LRRK2 pIC50” value turn out when CC(=O)Nc1cccc(C(=O)Nc2cnn(C3CCC3)c2)n1 [Example 4-8, 6-(acetylamino)-N-(1-cyclobutyl-1H-pyrazol-4-yl)pyridine-2-carboxamide] was run?
**A.** 6.33

**Q.** Which “LRRK2 pIC50” value does the source give for O=C(Nc1cnn(C2CCC2)c1)c1csc(-c2ccccc2)n1 [Example 4-9, N-(1-cyclobutyl-1H-pyrazol-4-yl)-2-phenyl-1,3-thiazole-4-carboxamide] here?
**A.** 6.70

**Q.** With COc1cccc(C(=O)Nc2cnn(C3CCC3)c2)n1 [Example 4-10, N-(1-cyclobutyl-1H-pyrazol-4-yl)-6-methoxypyridine-2-carboxamide] as the molecule, how does the “LRRK2 pIC50” value read?
**A.** 5.35

**Q.** With O=C(Nc1cnn(C2CCC2)c1)c1ccn(-c2ncccn2)n1 [Example 4-11, N-(1-cyclobutyl-1H-pyrazol-4-yl)-1-pyrimidin-2-yl-1H-pyrazole-3-carboxamide] as the molecule, how does the “LRRK2 pIC50” value read?
**A.** 5.71

**Q.** CC(=O)Nc1nc(C(=O)Nc2cnn(C3CCC3)c2)cs1 [Example 4-12, 2-(acetylamino)-N-(1-cyclobutyl-1H-pyrazol-4-yl)-1,3-thiazole-4-carboxamide] was tested. Which “LRRK2 pIC50” value did it give?
**A.** 6.18

**Q.** O=C(Nc1cnn(C2CCC2)c1)c1cccc(-n2cccn2)n1 [Example 4-13, N-(1-cyclobutyl-1H-pyrazol-4-yl)-6-(1H-pyrazol-1-yl)pyridine-2-carboxamide] was tested. Which “LRRK2 pIC50” value did it give?
**A.** 6.76

**Q.** How did the “LRRK2 pIC50” value turn out when O=C(Nc1cnn(C2CCC2)c1)c1csc(Nc2ccccc2)n1 [Example 4-14, N-(1-cyclobutyl-1H-pyrazol-4-yl)-2-(phenylamino)-1,3-thiazole-4-carboxamide] was run?
**A.** 6.12

**Q.** With Cn1cc(NC(=O)c2csc(-c3cn[nH]c3)n2)cn1 [Example 4-15, N-(1-methyl-1H-pyrazol-4-yl)-2-(1H-pyrazol-4-yl)thiazole-4-carboxamide] as the molecule, how does the “LRRK2 pIC50” value read?
**A.** 7.28

**Q.** Which “LRRK2 pIC50” value does the source give for O=C(Nc1cnn(C2CCC2)c1)c1cccc(N2CCCC2)n1 [Example 4-16, N-(1-cyclobutyl-1H-pyrazol-4-yl)-6-(pyrrolidin-1-yl)picolinamide] here?
**A.** 6.04

**Q.** How did the “LRRK2 pIC50” value turn out when O=C(Nc1cnn(C2CCC2)c1)c1cccc(-n2ccnc2)n1 [Example 4-17, N-(1-cyclobutyl-1H-pyrazol-4-yl)-6-(1H-imidazol-1-yl)picolinamide] was run?
**A.** 5.91

**Q.** With O=C(Nc1cnn(C2CCC2)c1)c1cccc(N2CCCCC2)n1 [Example 4-18, N-(1-cyclobutyl-1H-pyrazol-4-yl)-6-(piperidin-1-yl)picolinamide] as the molecule, how does the “LRRK2 pIC50” value read?
**A.** 5.81

**Q.** For O=C(Nc1cnn(CC2(F)COC2)c1)c1csc(-c2cn[nH]c2)n1 [Example 5-1, N-(1-((3-Fluorooxetan-3-yl)methyl)-1H-pyrazol-4-yl)-2-(1H-pyrazol-4-yl)thiazole-4-carboxamide], which “LRRK2 pIC50” value is on record?
**A.** 7.50

**Q.** With Cn1cc(NC(=O)c2csc(-c3cn[nH]c3)n2)c(CO)n1 [Example 6-1, N-(3-(Hydroxymethyl)-1-methyl-1H-pyrazol-4-yl)-2-(1H-pyrazol-4-yl)thiazole-4-carboxamide] as the molecule, how does the “LRRK2 pIC50” value read?
**A.** 7.47

**Q.** O=C(Nc1cnn(CC2CCC2)c1)c1csc(-c2cn[nH]c2)n1 [Example 7-1, N-(1-(Cyclobutylmethyl)-1H-pyrazol-4-yl)-2-(1H-pyrazol-4-yl)thiazole-4-carboxamide] was tested. Which “LRRK2 pIC50” value did it give?
**A.** 7.76

**Q.** How did the “LRRK2 pIC50” value turn out when O=C(Nc1cn(CC(F)F)nc1C(F)F)c1csc(-c2cn[nH]c2)n1 [Example 7-2, N-[1-(2,2-difluoroethyl)-3-(difluoromethyl)-1H-pyrazol-4-yl]-2-(1H-pyrazol-4-yl)-1,3-thiazole-4-carboxamide] was run?
**A.** 7.58

**Q.** How did the “LRRK2 pIC50” value turn out when COCCn1cc(NC(=O)c2csc(-c3cn[nH]c3)n2)c(C(F)F)n1 [Example 7-3, N-[3-(difluoromethyl)-1-(2-methoxyethyl)-1H-pyrazol-4-yl]-2-(1H-pyrazol-4-yl)-1,3-thiazole-4-carboxamide] was run?
**A.** 7.27

**Q.** How did the “LRRK2 pIC50” value turn out when O=C(Nc1cnn(CC2CCNCC2)c1)c1csc(-c2cn[nH]c2)n1 [Example 7-4, N-{1-[(piperidin-4-yl)methyl]-1H-pyrazol-4-yl}-2-(1H-pyrazol-4-yl)-1,3-thiazole-4-carboxamide] was run?
**A.** 6.79

**Q.** O=C(Nc1cn(CC2CCCCO2)nc1C(F)F)c1csc(-c2cn[nH]c2)n1 (stereo not shown) [Example 7-5, N-[3-(difluoromethyl)-1-(tetrahydro-2H-pyran-2-ylmethyl)-1H-pyrazol-4-yl]-2-(1H-pyrazol-4-yl)-1,3-thiazole-4-carboxamide] was tested. Which “LRRK2 pIC50” value did it give?
**A.** 7.32

**Q.** How did the “LRRK2 pIC50” value turn out when CN(C)CCCn1cc(NC(=O)c2csc(-c3cn[nH]c3)n2)cn1 [Example 7-6, N-{1-[3-(dimethylamino)propyl]-1H-pyrazol-4-yl}-2-(1H-pyrazol-4-yl)-1,3-thiazole-4-carboxamide] was run?
**A.** 6.43

**Q.** With O=C(Nc1cn(CC2CCOCC2)nc1C(F)F)c1csc(-c2cn[nH]c2)n1 [Example 7-7, N-[3-(difluoromethyl)-1-(tetrahydro-2H-pyran-4-ylmethyl)-1H-pyrazol-4-yl]-2-(1H-pyrazol-4-yl)-1,3-thiazole-4-carboxamide] as the molecule, how does the “LRRK2 pIC50” value read?
**A.** 7.72

**Q.** Which “LRRK2 pIC50” value does the source give for O=C(Nc1cnn(CC2CCC(F)(F)CC2)c1)c1csc(-c2cn[nH]c2)n1 [Example 7-8, N-{1-[(4,4-difluorocyclohexyl)methyl]-1H-pyrazol-4-yl}-2-(1H-pyrazol-4-yl)-1,3-thiazole-4-carboxamide] here?
**A.** 7.35

**Q.** O=C(Nc1cn(CCF)nc1C(F)F)c1csc(-c2cn[nH]c2)n1 [Example 7-9, N-[3-(difluoromethyl)-1-(2-fluoroethyl)-1H-pyrazol-4-yl]-2-(1H-pyrazol-4-yl)-1,3-thiazole-4-carboxamide] was tested. Which “LRRK2 pIC50” value did it give?
**A.** 7.75

**Q.** O=C(Nc1cnn(C2CCOCC2)c1)c1csc(-c2cn[nH]c2)n1 [Example 7-10, 2-(1H-pyrazol-4-yl)-N-[1-(tetrahydro-2H-pyran-4-yl)-1H-pyrazol-4-yl]-1,3-thiazole-4-carboxamide] was tested. Which “LRRK2 pIC50” value did it give?
**A.** 7.37

**Q.** With O=C(Nc1cn(CC2CCC2)nc1C(F)F)c1csc(-c2cn[nH]c2)n1 [Example 7-11, N-[1-(cyclobutylmethyl)-3-(difluoromethyl)-1H-pyrazol-4-yl]-2-(1H-pyrazol-4-yl)-1,3-thiazole-4-carboxamide] as the molecule, how does the “LRRK2 pIC50” value read?
**A.** 7.55
